The values that follow come from US20020119506A1, “Genes encoding UMP kinase, methods for purifying UMP kinase and methods of characterizing UMP kinase” (INSTITUT PASTEUR, priority 2000, published 2002).

“Also recorded” adds a separate entry of the source. Read-outs that look alike come from different tables or passages of the source.

The target of data set [1] is T1, UMP kinase from B. subtilis (Bacillus subtilis, UniProt O31749).
T1 sequence (O31749 1-240): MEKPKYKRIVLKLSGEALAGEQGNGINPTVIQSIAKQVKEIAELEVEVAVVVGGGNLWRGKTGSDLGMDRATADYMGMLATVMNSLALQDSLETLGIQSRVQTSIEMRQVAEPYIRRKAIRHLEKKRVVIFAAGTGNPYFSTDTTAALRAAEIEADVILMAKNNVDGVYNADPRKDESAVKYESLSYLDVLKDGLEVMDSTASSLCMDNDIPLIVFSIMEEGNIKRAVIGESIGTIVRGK
In words: UMP kinase activity, coupled spectrophotometric assay. The class given is biochemical. Here is the method:
Purification of UMP kinase and activity assays. E. coli overproducing the UMP kinase from B. subtilis was disrupted by sonication in 50 mM Tris-HCl (pH 7.4) and 2 mM UTP. The bacterial extract was heated for 10 min at 65° C., then the precipitated proteins were removed by centrifugation at 10,000 g for 30 min. The supernatant was concentrated by ultrafiltration to about 10 mg of protein/ml, then applied to a Sephacryl S-300 HR column (2.5×110 cm) equilibrated with 50 mM Tris-HCl (pH 7.4), 0.1 M NaCl and 2 mM UTP at a flow rate of 10 ml/h. […] Fractions of 1 ml of protein solution were sampled in Eppendorf tubes and stored at different temperatures between 20° C. and −80° C. The UMP kinase activity was determined at 30° C. using a coupled spectrophotometric assay (0.5 ml final volume) on an Eppendorf PCP6121 photometer [Blondin, 1994 #977]. The “standard” reaction medium contained 50 mM Tris-HCl (pH 7.4), 50 mM KCl, 2 mM MgCl2, 1 mM phosphoenolpyruvate, 0.2 mM NADH, 2 mM ATP, 0.5 mM GTP and 2 units each of lactate dehydrogenase, pyruvate kinase and NDP kinase. The crude or pure preparation of UMP kinase was then added, followed two minutes later by 1.3 mM UMP. The decrease in absorbance at 334 nm (between 0.03 and 0.3/min) was then recorded and corrected for secondary reactions, occurring in the absence of UMP. One unit of UMP kinase corresponds to 1 μmol of product formed per min.
The UMP kinase activity was determined at 30° C. using a coupled spectrophotometric assay (0.5 ml final volume) on an Eppendorf PCP6121 photometer. The “standard” reaction medium contained 50 mM Tris-HCl (pH 7.4), 50 mM KCl, 2 mM MgCl2, 1 mM phosphoenolpyruvate, 0.2 mM NADH, 1 or 2 mM ATP, 0.5 mM GTP and 2 units each of lactate dehydrogenase, pyruvate kinase and NDP kinase. The pure preparation of UMP kinase was then added, followed by 0.3 or 1 mM UMP. The decrease in absorbance at 334 nm (between 0.03 and 0.3/min) was then recorded and corrected for secondary reactions occurring in the absence of UMP. One unit of UMP kinase corresponds to 1 μmol of product formed per min.

Data set [2] concerns the target T1, UMP kinase from B. subtilis. Particulars: for stabilization of UMP kinase activity on storage (in words): crude bacterial extract, UTP ≧2 mM, ATP and GTP 2 mM each, various temperatures.
The target in data set [3] is E. coli UMP kinase (Escherichia coli, UniProt P0A7E9). The following applies: cited from earlier work.
For data set [4], the target named is UMP kinase from H. influenzae (Haemophilus influenzae, UniProt P43890). In words: UMP kinase activity, coupled spectrophotometric assay. Format: biochemical. Here is the method: The UMP kinase activity was determined at 30° C. using a coupled spectrophotometric assay (0.5 ml final volume) on an Eppendorf PCP6121 photometer. The “standard” reaction medium contained 50 mM Tris-HCl (pH 7.4), 50 mM KCl, 2 mM MgCl2, 1 mM phosphoenolpyruvate, 0.2 mM NADH, 1 or 2 mM ATP, 0.5 mM GTP and 2 units each of lactate dehydrogenase, pyruvate kinase and NDP kinase. The pure preparation of UMP kinase was then added, followed by 0.3 or 1 mM UMP. The decrease in absorbance at 334 nm (between 0.03 and 0.3/min) was then recorded and corrected for secondary reactions occurring in the absence of UMP. One unit of UMP kinase corresponds to 1 μmol of product formed per min. The specific activities of the recombinant enzymes are the following: […]

Data set [5] deals with T2, UMP kinase from M. tuberculosis (Mycobacterium tuberculosis, UniProt P9WHK5). Format: biochemical.
The target of data set [6] is T2, UMP kinase from M. tuberculosis. The following applies: in the presence of UTP.
In data set [7] the target is T1, UMP kinase from B. subtilis. In words: Thermal stability of UMP kinase (FIG. 1). As for the experimental part:
UMP kinase from B. subtilis overproduced in strain BL21 (DE3)/pDIA17 (over 30% of total E. coli proteins) was recovered in the supernatant after cell breakage in 50 mM Tris-HCl (pH 7.4) and centrifugation. The activity of recombinant UMP kinase declined rapidly upon storage at either room temperature, +4° C. or under frozen state. After 24 h, only 15% of initial UMP kinase activity was recovered. EDTA, thiols, bovine serum albumin, or antiprotease compounds alone or in mixture were ineffective. […] UTP increased the thermal stability of bacterial UMP kinase (FIG. 1), the half maximal inactivation being shifted from 42° C. in the absence of UTP to over 70° C. in the presence of nucleotide.

In data set [8] the target is T3, E. coli UMP kinase (Escherichia coli, UniProt P0A7E9).
T3 sequence (P0A7E9 whole entry, looked up): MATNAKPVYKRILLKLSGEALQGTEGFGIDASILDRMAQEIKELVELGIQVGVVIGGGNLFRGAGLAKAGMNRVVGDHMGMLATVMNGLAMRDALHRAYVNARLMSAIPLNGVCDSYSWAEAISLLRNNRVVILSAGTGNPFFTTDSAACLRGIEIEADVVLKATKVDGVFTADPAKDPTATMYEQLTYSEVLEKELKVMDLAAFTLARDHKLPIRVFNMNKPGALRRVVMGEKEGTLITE
In words: UMP kinase activity and activation by guanine nucleotides (comparison enzyme). The class given is biochemical. Particulars: under identical conditions (presence of GTP).

Chain of UMP kinase from H. influenzae (P43890 whole entry): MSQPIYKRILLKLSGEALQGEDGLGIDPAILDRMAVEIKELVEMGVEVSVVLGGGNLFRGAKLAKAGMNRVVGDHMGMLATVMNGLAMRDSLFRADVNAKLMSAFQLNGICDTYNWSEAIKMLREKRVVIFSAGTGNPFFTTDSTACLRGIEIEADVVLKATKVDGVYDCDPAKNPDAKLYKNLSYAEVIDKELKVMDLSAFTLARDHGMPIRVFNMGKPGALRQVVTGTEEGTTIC
T2 sequence (P9WHK5 whole entry): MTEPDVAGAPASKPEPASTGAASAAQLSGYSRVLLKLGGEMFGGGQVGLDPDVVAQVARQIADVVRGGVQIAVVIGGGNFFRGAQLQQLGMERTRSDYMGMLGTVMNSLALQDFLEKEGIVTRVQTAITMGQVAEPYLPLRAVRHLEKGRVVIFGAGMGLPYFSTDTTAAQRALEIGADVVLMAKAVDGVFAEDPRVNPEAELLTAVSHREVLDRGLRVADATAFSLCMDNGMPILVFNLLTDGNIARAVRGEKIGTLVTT

With `Nc1ncnc2c1ncn2[C@@H]1O[C@H](COP(=O)(O)OP(=O)(O)OP(=O)(O)O)[C@@H](O)[C@H]1O` [ATP], the Michaelis constant (Km) in data set [1] (ATP varied, absence or presence of GTP (0.5 mM), UMP 1 mM, read-out: apparent Km for ATP) was found to be 900 µM.
For `O=C(O)CN(CCN(CC(=O)O)CC(=O)O)CC(=O)O` [EDTA], in data set [2], the “stabilization of UMP kinase activity on storage (in words)” value (“stabilization of UMP kinase activity” for short) is given as “ineffective”.
Consider `Nc1nc2c(ncn2[C@@H]2O[C@H](COP(=O)(O)OP(=O)(O)NP(=O)(O)O)[C@@H](O)[C@H]2O)c(=O)[nH]1` [GMP-PNP], for which, in data set [1], the “activation of UMP kinase by guanine nucleotides (in words)” value (“activation of UMP kinase … (in words)” for short) is recorded as “can activate at significant rates”.
Turning to `Nc1nc2c(ncn2[C@@H]2O[C@H](COP(=O)(O)O)[C@@H](O)[C@H]2O)c(=O)[nH]1` [GMP], on E. coli UMP kinase [3], the “activation of E. coli UMP kinase (in words)” value is recorded as “significant activation; also recorded: activated”. The “activation of UMP kinase … (in words)” value in data set [1] is on record as “totally ineffective; also recorded: insensitive”.
Consider `Nc1nc2c(ncn2[C@@H]2O[C@H](COP(=O)(O)OP(=O)(O)OP(=O)(O)O)[C@@H](O)[C@H]2O)c(=O)[nH]1` [GTP], for which the “degree of activation by GTP (factor)” value is reported as 3 in data set [4] and 2 in data set [5]. The “activation of UMP kinase (fold)” value in data set [1] (2 mM ATP and 1 mM UTP) is listed as “ten fold activation”. Further, the EC50 in data set [1] (2 mM ATP and 1 mM UTP, read-out: half maximum activation concentration) came to 100 µM. Also, the “activity of UMP kinase in the absence of GTP relative to presence” value in data set [1] (absence of GTP) is reported as “twenty times lower”.
Regarding `O=c1ccn([C@@H]2O[C@H](COP(=O)(O)O)[C@@H](O)[C@H]2O)c(=O)[nH]1` [UMP], the “UMP concentration at which rates were maximal” value in data set [1] (absence of GTP, ATP 1 mM, rates decline at higher UMP) fell in the range of 50 to 70 µM. Moreover, the Km in data set [1] (absence of GTP, ATP constant (1 mM), read-out: Km for UMP) is roughly 8 µM. For the same molecule, the “UMP concentration at which saturation was attained” value in data set [1] (presence of GTP, ATP 1 mM) is 0.2 mM.
On to `O=c1ccn([C@@H]2O[C@H](COP(=O)(O)OP(=O)(O)OP(=O)(O)O)[C@@H](O)[C@H]2O)c(=O)[nH]1` [UTP], for which the Tm in data set [6] is 67 °C. The “half maximal inactivation temperature” value in data set [7] (in the presence of UTP) is “over 70 °C”. For the same molecule, the “effect of UTP on UMP kinase activity (in words)” value in data set [1] is “antagonized the effect of GTP; also recorded: inhibits”. Besides, the IC50 in data set [1] (at lower concentration of UMP (50 μM), read-out: I50 of UTP inhibition) was 50 µM. Moreover, the Km in data set [1] (presence of GTP, ATP 1 mM, without inhibition by excess of UMP, read-out: apparent Km for UTP) came to 30 µM. In addition, in data set [2], the “stabilization of UMP kinase activity” value is “stabilized considerably”.
Consider `Nc1nc2c(ncn2[C@@H]2O[C@@H]3COP(=O)(O)O[C@H]3[C@H]2O)c(=O)[nH]1` [cGMP], for which, in data set [4], the “best activator (in words)” value was “highest activation and affinity”; the “nucleotide concentration at which maximal activation is attained” value came to 20 µM. For the same molecule, on E. coli UMP kinase [3], the “activation of E. coli UMP kinase (in words)” value was “significant activation”.
In the case of `Nc1ncnc2c1ncn2[C@H]1C[C@H](O)[C@@H](COP(=O)(O)OP(=O)(O)OP(=O)(O)O)O1` [dATP], the phosphate donor ability result in data set [1] (compared with ATP) is given as “as good as ATP as phosphate donor”.
As to `Nc1nc2c(ncn2[C@H]2C[C@H](O)[C@@H](COP(=O)(O)OP(=O)(O)OP(=O)(O)O)O2)c(=O)[nH]1` [dGTP], the “activation of UMP kinase … (in words)” value in data set [1] is “effective but with lower affinities and extent of activation; also recorded: can activate at significant rates”.
Consider `Nc1nc2c(ncn2[C@@H]2O[C@H](CO)[C@@H](O)[C@H]2O)c(=O)[nH]1` [guanosine], for which the “activation of E. coli UMP kinase (in words)” value on E. coli UMP kinase [3] is “significant activation”.
With “bovine serum albumin: protein additive tested as stabilizer”, the “stabilization of UMP kinase activity” value in data set [2] is given as “ineffective”.

B1: UMP kinase from B. subtilis: recombinant pyrH gene product of B. subtilis overproduced in E. coli, hexamer (protein)
chain: T1 sequence (O31749 1-240)
On to B1, for which the “half maximal inactivation temperature” value in data set [7] (in the absence of UTP) was 42 °C. Also, the “specific activity of the recombinant enzyme” value in data set [1] (2 mM ATP, 1 mM UMP) was 25 units/mg of protein. In data set [1] ("standard" assay conditions), the “specific activity of purified recombinant protein” value was 26 U/mg of protein. Further, in data set [1] (in the presence of GTP), the “specific activity of the purified enzyme” value is reported as 25 μmol/min^−1/mg of protein^−1. The “initial UMP kinase activity recovered after storage” value in data set [2] (after 24 h, crude extract without UTP, room temperature, +4° C. or frozen) is listed as 15%. For the same molecule, the “stability in the absence of UTP (in words)” value in data set [2] (irrespective of storage temperature (+4° C., −20° C. or −80° C.)) is on record as “unstable in the absence of the nucleotide”.

B2: UMP kinase from E. coli: comparison enzyme, bacterial UMP kinase from E. coli (protein, UniProt P0A7E9 2-241, looked up)
Uridylate kinase: ATNAKPVYKRILLKLSGEALQGTEGFGIDASILDRMAQEIKELVELGIQVGVVIGGGNLFRGAGLAKAGMNRVVGDHMGMLATVMNGLAMRDALHRAYVNARLMSAIPLNGVCDSYSWAEAISLLRNNRVVILSAGTGNPFFTTDSAACLRGIEIEADVVLKATKVDGVFTADPAKDPTATMYEQLTYSEVLEKELKVMDLAAFTLARDHKLPIRVFNMNKPGALRRVVMGEKEGTLITE
As to B2, the specific activity with E. coli UMP kinase [8] is listed as 150 μmol/min^−1/mg of protein^−1.

For orientation: Km means the concentration of substrate that gives half-maximal velocity.
